Results reported in ChEMBL document CHEMBL4257490, “Development of a peptide-based bifunctional chelator conjugated to a cytotoxic drug for the treatment of melanotic melanoma” (Medchemcomm, 2018).

How the values were obtained:
[1] = Drug uptake in liver of Balb/c mouse allografted with mouse B16F10 cells using 99mTc(CO)3-labeled compound at 10 to 12 MBq/kg, iv measured at 4 hrs; type: ADME, organism-based; conditions: in vivo
[2] = Drug uptake in spleen of Balb/c mouse allografted with mouse B16F10 cells using 99mTc(CO)3-labeled compound at 10 to 12 MBq/kg, iv measured at 2 hrs; type: ADME, organism-based; conditions: in vivo
[3] = Drug uptake in muscle of Balb/c mouse allografted with mouse B16F10 cells using 99mTc(CO)3-labeled compound at 10 to 12 MBq/kg, iv measured at 4 hrs; type: ADME, organism-based, Muscle tissue; conditions: in vivo
[4] = Ratio of drug level in tumor to blood of Balb/c mouse allografted with mouse B16F10 cells using 99mTc(CO)3-labeled compound at 10 to 12 MBq/kg, iv measured at 2 hrs; type: ADME, organism-based, Tumor/tissue
[5] = Drug uptake in urinary bladder of Balb/c mouse allografted with mouse B16F10 cells using 99mTc(CO)3-labeled compound at 4 to 8 MBq, iv measured at 4 hrs by scintigraphic imaging method; type: ADME, organism-based; conditions: in vivo
[6] = Stability in saline assessed as parent compond remaining using 99mTc(CO)3-labeled compound after 24 hrs by TLC method; type: physicochemical; conditions: read-out: Stability
[7] = Drug uptake in kidney of Balb/c mouse allografted with mouse B16F10 cells using 99mTc(CO)3-labeled compound at 4 to 8 MBq, iv measured at 4 hrs by scintigraphic imaging method; type: ADME, organism-based; conditions: in vivo
[8] = Drug degradation in histidine solution using 99mTc(CO)3-labeled compound after 24 hrs by TLC method; type: physicochemical; conditions: read-out: Drug degradation
[9] = Drug uptake in heart of Balb/c mouse allografted with mouse B16F10 cells using 99mTc(CO)3-labeled compound at 10 to 12 MBq/kg, iv measured at 2 hrs; type: ADME, organism-based; conditions: in vivo
[10] = Drug uptake in liver of Balb/c mouse allografted with mouse B16F10 cells using 99mTc(CO)3-labeled compound at 10 to 12 MBq/kg, iv measured at 2 hrs; type: ADME, organism-based; conditions: in vivo
[11] = Drug uptake in mouse B16F10 cells using 99mTc(CO)3-labeled compound at 15 to 20 MBq/ml after 240 mins by gamma scintillation counting method; type: ADME, cell-based; conditions: b16-f10, 4 h
[12] = Drug uptake in tumor of Balb/c mouse allografted with mouse B16F10 cells using 99mTc(CO)3-labeled compound at 4 to 8 MBq, iv measured at 4 hrs by scintigraphic imaging method; type: ADME, organism-based, Neoplasm; conditions: in vivo
[13] = Drug uptake in stomach of Balb/c mouse allografted with mouse B16F10 cells using 99mTc(CO)3-labeled compound at 10 to 12 MBq/kg, iv measured at 2 hrs; type: ADME, organism-based; conditions: in vivo
[14] = n-Octanol-phosphate buffer partition co-efficient, log P of 99mTc(CO)3-labeled compound at 2 to 3 KBq after 1 min by gamma scintillation counting method; type: physicochemical
[15] = Drug uptake in blood of Balb/c mouse allografted with mouse B16F10 cells using 99mTc(CO)3-labeled compound at 10 to 12 MBq/kg, iv measured at 4 hrs; type: ADME, organism-based; conditions: in vivo
[16] = Drug uptake in mouse B16F10 cells using 99mTc(CO)3-labeled compound at 15 to 20 MBq/ml after 30 mins by gamma scintillation counting method relative to total added activity; type: ADME, cell-based; conditions: b16-f10, 0.5 h
[17] = Drug uptake in intestine of Balb/c mouse allografted with mouse B16F10 cells using 99mTc(CO)3-labeled compound at 10 to 12 MBq/kg, iv measured at 2 hrs; type: ADME, organism-based; conditions: in vivo
[18] = Hemolytic activity in rat erythrocytes at 100 uM after 1 hr relative to control; type: ADME, cell-based, Erythrocyte; conditions: read-out: Activity
[19] = Drug uptake in muscle of Balb/c mouse allografted with mouse B16F10 cells using 99mTc(CO)3-labeled compound at 10 to 12 MBq/kg, iv measured at 2 hrs; type: ADME, organism-based, Muscle tissue; conditions: in vivo
[20] = Drug uptake in liver of Balb/c mouse allografted with mouse B16F10 cells using 99mTc(CO)3-labeled compound at 4 to 8 MBq, iv measured at 4 hrs by scintigraphic imaging method; type: ADME, organism-based; conditions: in vivo
[21] = Drug uptake in blood of Balb/c mouse allografted with mouse B16F10 cells using 99mTc(CO)3-labeled compound at 10 to 12 MBq/kg, iv measured at 2 hrs; type: ADME, organism-based; conditions: in vivo
[22] = Drug uptake in kidney of Balb/c mouse allografted with mouse B16F10 cells using 99mTc(CO)3-labeled compound at 10 to 12 MBq/kg, iv measured at 2 hrs; type: ADME, organism-based; conditions: in vivo
[23] = Drug uptake in mouse B16F10 cells using 99mTc(CO)3-labeled compound at 15 to 20 MBq/ml after 30 mins by gamma scintillation counting method; type: ADME, cell-based; conditions: b16-f10, 0.5 h
[24] = Drug uptake in tumor muscle of Balb/c mouse allografted with mouse B16F10 cells using 99mTc(CO)3-labeled compound at 10 to 12 MBq/kg, iv measured at 4 hrs; type: ADME, organism-based; conditions: in vivo
[25] = Ratio of drug level in tumor to muscle of Balb/c mouse allografted with mouse B16F10 cells using 99mTc(CO)3-labeled compound at 10 to 12 MBq/kg, iv measured at 4 hrs; type: ADME, organism-based, Tumor/tissue; conditions: in vivo
[26] = Drug uptake in gastrointestinal tract of Balb/c mouse allografted with mouse B16F10 cells using 99mTc(CO)3-labeled compound at 4 to 8 MBq, iv measured at 4 hrs by scintigraphic imaging method; type: ADME, organism-based; conditions: in vivo
[27] = Drug uptake in stomach of Balb/c mouse allografted with mouse B16F10 cells using 99mTc(CO)3-labeled compound at 10 to 12 MBq/kg, iv measured at 4 hrs; type: ADME, organism-based; conditions: in vivo
[28] = Drug uptake in lung of Balb/c mouse allografted with mouse B16F10 cells using 99mTc(CO)3-labeled compound at 10 to 12 MBq/kg, iv measured at 4 hrs; type: ADME, organism-based; conditions: in vivo
[29] = Drug uptake in kidney of Balb/c mouse allografted with mouse B16F10 cells using 99mTc(CO)3-labeled compound at 10 to 12 MBq/kg, iv measured at 4 hrs; type: ADME, organism-based; conditions: in vivo
[30] = Drug uptake in lung of Balb/c mouse allografted with mouse B16F10 cells using 99mTc(CO)3-labeled compound at 10 to 12 MBq/kg, iv measured at 2 hrs; type: ADME, organism-based; conditions: in vivo
[31] = Ratio of drug level in tumor to blood of Balb/c mouse allografted with mouse B16F10 cells using 99mTc(CO)3-labeled compound at 10 to 12 MBq/kg, iv measured at 4 hrs; type: ADME, organism-based, Tumor/tissue
[32] = Drug uptake in tumor muscle of Balb/c mouse allografted with mouse B16F10 cells using 99mTc(CO)3-labeled compound at 10 to 12 MBq/kg, iv measured at 2 hrs; type: ADME, organism-based; conditions: in vivo
[33] = Drug uptake in spleen of Balb/c mouse allografted with mouse B16F10 cells using 99mTc(CO)3-labeled compound at 10 to 12 MBq/kg, iv measured at 4 hrs; type: ADME, organism-based; conditions: in vivo
[34] = Drug uptake in mouse B16F10 cells using 99mTc(CO)3-labeled compound at 15 to 20 MBq/ml after 240 mins by gamma scintillation counting method relative to total added activity; type: ADME, cell-based; conditions: b16-f10, 4 h
[35] = Drug uptake in heart of Balb/c mouse allografted with mouse B16F10 cells using 99mTc(CO)3-labeled compound at 10 to 12 MBq/kg, iv measured at 4 hrs; type: ADME, organism-based; conditions: in vivo
[36] = Drug uptake in intestine of Balb/c mouse allografted with mouse B16F10 cells using 99mTc(CO)3-labeled compound at 10 to 12 MBq/kg, iv measured at 4 hrs; type: ADME, organism-based; conditions: in vivo
[37] = Drug uptake in urine of Balb/c mouse allografted with mouse B16F10 cells using 99mTc(CO)3-labeled compound at 10 to 12 MBq/kg, iv measured at 2 hrs; type: ADME, organism-based; conditions: in vivo
[38] = Drug uptake in urine of Balb/c mouse allografted with mouse B16F10 cells using 99mTc(CO)3-labeled compound at 10 to 12 MBq/kg, iv measured at 4 hrs; type: ADME, organism-based; conditions: in vivo
[39] = Metabolic stability in rat serum assessed as parent compound remaining using 99mTc(CO)3-labeled compound after 24 hrs by TLC method; type: ADME, cell-free; conditions: read-out: Stability
[40] = Ratio of drug level in tumor to muscle of Balb/c mouse allografted with mouse B16F10 cells using 99mTc(CO)3-labeled compound at 10 to 12 MBq/kg, iv measured at 2 hrs; type: ADME, organism-based, Tumor/tissue; conditions: in vivo
[41] = Hemolytic activity in rat erythrocytes up to 50 uM after 1 hr relative to control; type: ADME, cell-based, Erythrocyte; conditions: read-out: Activity

H-HYKHGK-NH2
Drug uptake [1]: 14.64 % ID/g | Drug uptake [2]: 0.63 % ID/g | Drug uptake [3]: 0.16 % ID/g | Kp at 2 h [4]: 0.97 | Drug uptake [5]: Active | remaining at 24 h [6]: ≥ 92% | Drug uptake [7]: Active | degraded at 24 h [8]: 5% | Drug uptake [9]: 0.08 % ID/g | Drug uptake [10]: 18.15 % ID/g | Drug uptake [11]: 83% | Drug uptake [12]: Active | Drug uptake [13]: 0.23 % ID/g | logP at 1 min [14]: -0.978 | Drug uptake [15]: 1.65 %ID/ml | Drug uptake [16]: 4.76% | Drug uptake [17]: 7.61 % ID/g | hemolysis at 1 h, 100 µM [18]: 7 to 9% | Drug uptake [19]: 0.18 % ID/g | Drug uptake [20]: Active | Drug uptake [21]: 1.88 %ID/ml | Drug uptake [22]: 17.15 % ID/g | Drug uptake [23]: 41.41% | Drug uptake [24]: 3.01 % ID/g | Ratio [25]: 18.81 | Drug uptake [26]: Active | Drug uptake [27]: 0.19 % ID/g | Drug uptake [28]: 0.24 % ID/g | Drug uptake [29]: 15.76 % ID/g | Drug uptake [30]: 0.33 % ID/g | Kp at 4 h [31]: 1.82 | Drug uptake [32]: 1.83 % ID/g | Drug uptake [33]: 0.45 % ID/g | Drug uptake [34]: 9.59% | Drug uptake [35]: 0.06 % ID/g | Drug uptake [36]: 8.32 % ID/g | Drug uptake [37]: 42.15 %ID/ml | Drug uptake [38]: 49.26 %ID/ml | remaining at 24 h [39]: ≥ 92% | Ratio [40]: 10.11 | hemolysis at 1 h [41]: 5 to 6%
